From patent US8318757B2, “Substituted isoxazoline compound and pest control agent” (Nissan Chemical Industries, Ltd., priority 2007, dated 2012)

Experiments:
Type in all cases: in vivo
Spodoptera exigua = experiment: Mortality Test for Spodoptera exigua; conditions: in Brassica oleracea, 144 h
Method: (§1) A 10% emulsifiable concentrate of the compound of the present invention (depending on the type of the compound, a 10% wettable powder was subjected to the test) was diluted with water containing a spreader to prepare a drug solution in a concentration of 100 ppm. In this drug solution, a leaf of cabbage was immersed for about 10 seconds and was air-dried and then put into a petri dish. In the petri dish, five 2 instar larvae of Spodoptera exigua per petri dish were released and the petri dish was capped and stored in a thermostatic room of 25° C. The number of killed larvae after 6 days was measured and the mortality was calculated from the same calculation formula as that in Test Example 1. Here, the test was carried out on the duplicate samples.

Homona magnanima = experiment: Mortality Test for Homona magnanima; conditions: in Brassica oleracea, 144 h
Method: as §1, with “Homona magnanima” for “Spodoptera exigua”

Plutella xylostella = experiment: whole plant or invertebrate; conditions: in Brassica oleracea, 144 h
Method: as §1, with “10” for “100”, “Plutella xylostella” for “Spodoptera exigua”, “following” for “same”, “formula: Mortality (%)=(number of killed insect/number of released insect)×100.” for “formula as that in Test Example 1.”

Tetranychus urticae = experiment: whole plant or invertebrate; conditions: in Phaseolus vulgaris, 144 h
Method: (§2) In a styrol cup having an inner diameter of 7 cm, a wet filtration paper was laid and on the paper, a leaf of kidney bean cut out so as to have the same diameter as the inner diameter of the cup was laid, followed by inoculating ten larvae of Tetranychus urticae per leaf with the leaf. A 10% emulsifiable concentrate of the compound of the present invention (depending on the type of the compound, a 10% wettable powder was subjected to the test) was diluted with water containing a spreader to prepare a drug solution in a concentration of 500 ppm. The drug solution was sprayed using a rotary spray tower in an amount of 2.5 mL per styrol cup, and the cup was capped and stored in a thermostatic room of 25° C. The number of killed larvae after 6 days was measured and the mortality was calculated from the same calculation formula as that in Test Example 1. Here, the test was carried out on the duplicate samples.

Nilaparvata lugens = experiment: whole plant or invertebrate; conditions: in Oryza sativa, 144 h
Method: A 10% emulsifiable concentrate of the compound of the present invention (depending on the type of the compound, a 10% wettable powder was subjected to the test) was diluted with water containing a spreader to prepare a drug solution in a concentration of 500 ppm. In this drug solution, a leaf sheath of rice was immersed for about 10 seconds and was air-dried and then put into a test tube. In the test tube, five 2 instar larvae of Nilaparvata lugens per test tube were released and the test tube was capped with a sponge and stored in a thermostatic room of 25° C. The number of killed larvae after 6 days was measured and the mortality was calculated from the same calculation formula as that in Test Example 1. Here, the test was carried out on the duplicate samples.

Spodoptera litura = experiment: whole plant or invertebrate; conditions: in Brassica oleracea, 144 h
Method: as §1, with “10” for “100”, “litura” for “exigua”

[1] = tested on: Frankliniella occidentalis; experiment: whole plant or invertebrate; conditions: in Phaseolus vulgaris, 48 h
Method: as §2, with “ten 1 instar” for “ten”, “Frankliniella occidentalis” for “Tetranychus urticae”, “2” for “6”

Myzus persicae = experiment: whole plant or invertebrate; conditions: in Brassica oleracea, 144 h
Method: In a glass petri dish having an inner diameter of 3 cm, a wet absorbent cotton was laid and on the cotton, a leaf of cabbage cut out so as to have the same diameter as the inner diameter of the petri dish was laid, followed by releasing four apterous imagines of Myzus persicae on the leaf. After one day, a 10% emulsifiable concentrate of the compound of the present invention (depending on the type of the compound, a 10% wettable powder was subjected to the test) was diluted with water containing a spreader to prepare a drug solution in a concentration of 500 ppm. The drug solution was sprayed using a rotary spray tower (2.5 mg/cm^2), and the petri dish was capped and stored in a thermostatic room of 25° C. The number of killed imagines after 6 days was measured and the mortality was calculated from the same calculation formula as that in Test Example 1. Here, the test was carried out on the duplicate samples.

Liriomyza trifolii = experiment: whole plant or invertebrate; conditions: in Phaseolus vulgaris, 144 h
Method: A 10% emulsifiable concentrate of the compound of the present invention (depending on the type of the compound, a 10% wettable powder was subjected to the test) was diluted with water containing a spreader to prepare a drug solution in a concentration of 500 ppm. In this drug solution, a leaf of kidney bean which was cut out to a diameter of 7 cm, on which Liriomyza trifolii laid eggs (10 eggs/leaf) was immersed for about 10 seconds and was air-dried and then laid on a wet filtration paper laid in a styrol cup having an inner diameter of 7 cm. The styrol cup was capped and stored in a thermostatic room of 25° C. The number of killed larvae after 6 days was measured and the mortality was calculated from the same calculation formula as that in Test Example 1. Here, the test was carried out on the duplicate samples.

Helicoverpa armigera = experiment: Mortality Test for Helicoverpa armigera (Comparative Test); conditions: in Brassica oleracea, 144 h
Method: 10% emulsifiable concentrates of the compound of the present invention and a comparative compound were diluted with water containing a spreader to prepare drug solutions in a predetermined concentration. In each of the drug solutions, a leaf of cabbage was immersed for about 10 seconds and was air-dried and put into a petri dish. In the petri dish, seven 3 instar larvae of Helicoverpa armigera per petri dish were released and the petri dish was capped with a lid having a pore and stored in a thermostat room of 25° C. After 2 days of the treatment, an artificial fertilizer (1 cm^3) was added into the petri dish. The number of killed larvae after 6 days was measured and the mortality was calculated from the calculation formula: Mortality (%)=(number of killed insect/number of released insect)×100. Here, the test was carried out on the duplicate samples.

| Compound | mortality at 100 ppm (Homona magnanima) | mortality at 10 ppm (Plutella xylostella) | mortality at 500 ppm (Tetranychus urticae) | mortality at 10 ppm (Spodoptera litura) | mortality at 500 ppm [1] | mortality at 500 ppm (Myzus persicae) | mortality at 100 ppm (Plutella xylostella) | mortality at 100 ppm (Spodoptera litura) | mortality at 500 ppm (Liriomyza trifolii) | also measured |
| --- | --- | --- | --- | --- | --- | --- | --- | --- | --- | --- |
| CSCC(=O)NC(C)c1ccc(C2=NOC(c3cc(C(F)(F)F)cc(C(F)(F)F)c3)(C(F)(F)F)C2)cc1 (stereo not drawn) [1-001, N-[1-[4-[5-[3,5-bis(trifluoromethyl)phenyl]-5-trifluoromethyl-4,5-dihydroisoxazole-3-yl]phenyl]ethyl]-2-(methylthio)acetamide] | ≥ 80% | ≥ 80% | ≥ 80% | ≥ 80% | ≥ 80% | ≥ 80% | – | – | – | mortality at 100 ppm (Spodoptera exigua): ≥ 80%; mortality at 500 ppm (Nilaparvata lugens): ≥ 80% |
| O=C(CSCC(F)(F)F)NCc1ccc(C2=NOC(c3cc(Cl)c(Cl)c(Cl)c3)(C(F)(F)F)C2)cc1Cl (stereo not drawn) [1-029, N-[2-chloro-4-[5-(3,4,5-trichlorophenyl)-5-trifluoromethyl-4,5-dihydroisoxazole-3-yl]phenyl]methyl-2-(2,2,2-trifluoroethylthio)acetamide] | ≥ 80% | ≥ 80% | ≥ 80% | ≥ 80% | ≥ 80% | ≥ 80% | – | – | – | mortality at 500 ppm (Nilaparvata lugens): ≥ 80% |
| COCSCC(=O)NCc1ccc(C2=NOC(c3cc(Cl)c(Cl)c(Cl)c3)(C(F)(F)F)C2)cc1Cl (stereo not drawn) [1-030, N-[2-chloro-4-[5-(3,4,5-trichlorophenyl)-5-trifluoromethyl-4,5-dihydroisoxazole-3-yl]phenyl]methyl-2-(methoxymethylthio)acetamide] | – | – | – | – | – | – | ≥ 80% | ≥ 80% | – | – |
| CS(CC(=O)NCc1ccc(C2=NOC(c3cc(Cl)c(Cl)c(C(F)(F)F)c3)(C(F)(F)F)C2)cc1Br)=NC#N (stereo not drawn) [1-103, N-[2-bromo-4-[5-[3,4-dichloro-5-(trifluoromethyl)phenyl]-5-trifluoromethyl-4,5-dihydroisoxazole-3-yl]phenyl]methyl-2-[N-(cyano)methylsulfinimidoyl]acetamide] | – | – | – | – | – | – | ≥ 80% | ≥ 80% | – | – |
| CCS(=N)(=O)CC(=O)NCc1ccc(C2=NOC(c3cc(C(F)(F)F)cc(C(F)(F)F)c3)(C(F)(F)F)C2)cc1Cl (stereo not drawn) [1-173, N-[2-chloro-4-[5-[3,5-bis(trifluoromethyl)phenyl]-5-trifluoromethyl-4,5-dihydroisoxazole-3-yl]phenyl]methyl-2-(ethylsulfonimidoyl)acetamide] | – | ≥ 80% | ≥ 80% | ≥ 80% | ≥ 80% | – | – | – | ≥ 80% | – |
| C[S+]([O-])C(C(=O)NCc1ccc(C2=NOC(c3cc(C(F)(F)F)cc(C(F)(F)F)c3)(C(F)(F)F)C2)cc1Cl)[S+](C)[O-] (stereo not drawn) [1-211, N-[4-[5-[3,5-bis(trifluoromethyl)phenyl]-5-trifluoromethyl-4,5-dihydroisoxazole-3-yl]-2-chlorophenyl]methyl-2,2-bis(methylsulfinyl)acetamide] | – | – | – | – | – | – | ≥ 80% | ≥ 80% | ≥ 80% | mortality at 100 ppm (Tetranychus urticae): ≥ 80% |
| CCSC(C(=O)NCc1ccc(C2=NOC(c3cc(C(F)(F)F)cc(C(F)(F)F)c3)(C(F)(F)F)C2)cc1Cl)[S+]([O-])CC (stereo not drawn) [1-220, N-[4-[5-[3,5-bis(trifluoromethyl)phenyl]-5-trifluoromethyl-4,5-dihydroisoxazole-3-yl]-2-chlorophenyl]methyl-2-ethylsulfinyl-2-(ethylthio)acetamide] | ≥ 80% | – | – | – | – | – | ≥ 80% | ≥ 80% | ≥ 80% | mortality at 100 ppm (Tetranychus urticae): ≥ 80%; mortality at 100 ppm (Myzus persicae): ≥ 80% |
| CCSC(C(=O)NCc1ccc(C2=NOC(c3cc(C(F)(F)F)cc(C(F)(F)F)c3)(C(F)(F)F)C2)cc1Cl)S(=O)(=O)CC (stereo not drawn) [1-225, N-[4-[5-[3,5-bis(trifluoromethyl)phenyl]-5-trifluoromethyl-4,5-dihydroisoxazole-3-yl]-2-chlorophenyl]methyl-2-ethylsulfonyl-2-(ethylthio)acetamide] | – | – | ≥ 80% | – | – | ≥ 80% | ≥ 80% | ≥ 80% | – | – |
| CSCC(=O)NCc1ccc(C2=NOC(c3cc(Cl)cc(Cl)c3)(C(F)(F)F)C2)cc1Cl (stereo not drawn) [Comparative compound A] | – | – | – | – | – | – | – | – | – | mortality at 1 ppm (Helicoverpa armigera): 0%; mortality at 3 ppm (Helicoverpa armigera): 57.1%; mortality at 10 ppm (Helicoverpa armigera): 92.9%; mortality at 33 ppm (Helicoverpa armigera): 100% |
